# What was measured:
# [1] = tested on: apple leaf cuticles; assay: Penetration of Flufenacet through isolated apple leaf cuticles in the presence of test substances; conditions: apple, 0.75 g/L
# Text: (§1) Surfactants can affect the absorption of (active) ingredients through membranes such as skin, films or the plant cuticle. As a “finite-dose” application, it is known for the single administration or application of a solution, cream, gel etc. to a membrane that the absorption of active ingredient can be influenced by some additives such as surfactants even after wetting.
# (§2) The principle of the method has been published and described in detail e.g. in WO-A-2005/194844 or WO2017211572 A1). The leaf cuticles were enzymatically isolated in the manner described in the literature from apple leaves of orchard trees in a commercial stone fruit growing facility near Frankfurt am Main in 2017. The stomata-free cuticles were first dried under air and then installed into stainless steel diffusion cells. After application to the original upper side of the leaf and evaporation of the test liquid, i.e. of the spray liquids of the active ingredients with or without the inventive substances or comparative compositions, the diffusion cells were transferred into thermostated blocks and charged with aqueous liquid. The water used to make up the aqueous test liquids was local tap water (of known composition). At regular intervals, aliquot samples were taken and the proportion of active ingredient penetrated was determined by HPLC or alternatively by radio-chemical method where radio-labelled active ingredient was used as tracer to determine the concentration. During the experiment, the temperature in the system (block, diffusion cells, liquids, etc.) and the air humidity above the spray deposit on the cuticle were controlled. […] The analytical determination by means of HPLC (1290 Infinity, Agilent) was effected thereafter with a Kinetex column 30×2, 1 mm, 2.6μ C18 100 A (Phenomenex), taking a 20 μL aliquot as injection volume at the specified times. In each case, the geometric mean values of the penetration for intact membranes at the mean measurement times are given.
# [2] = tested on: apple leaf cuticles; assay: Penetration of Imidacloprid through isolated apple leaf cuticles in the presence of test substances; conditions: apple, 0.5 g/L
# Text: as §1
# (§3) The principle of the method has been published and described in detail e.g. in WO-A-2005/194844 or WO2017211572 A1). The leaf cuticles were enzymatically isolated in the manner described in the literature from apple leaves of orchard trees in a commercial stone fruit growing facility near Frankfurt am Main in 2017. The stomata-free cuticles were first dried under air and then installed into stainless steel diffusion cells. After application to the original upper side of the leaf and evaporation of the test liquid, i.e. of the spray liquids of the active ingredients with or without the inventive substances or comparative compositions, the diffusion cells were transferred into thermostated blocks and charged with aqueous liquid. The water used to make up the aqueous test liquids was local tap water (of known composition). At regular intervals, aliquot samples were taken and the proportion of active ingredient penetrated was determined by HPLC or alternatively by radio-chemical method where radio-labelled active ingredient was used as tracer to determine the concentration. During the experiment, the temperature in the system (block, diffusion cells, liquids, etc.) and the air humidity above the spray deposit on the cuticle were controlled. In the experiment, relative air humidity was constant throughout at 56% relative air humidity (air over supersaturated calcium nitrate) at a constant 10° C. or 25° C. The analytical determination by means of HPLC (1290 Infinity, Agilent) was effected thereafter with a Kinetex column 30×2, 1 mm, 2.6μ C18 100 A (Phenomenex), taking a 20 μL aliquot as injection volume at the specified times. In each case, the geometric mean values of the penetration for intact membranes at the mean measurement times are given.
# [3] = tested on: apple leaf cuticles; assay: Penetration of MCPA through isolated apple leaf cuticles in the presence of test substances; conditions: MCPA 1.5 g/L in spray liquid, no test substance, 25° C./56% rel. air humidity
# Text: as §1, §3
# [4] = tested on: apple leaf cuticles; assay: Penetration of Mesosulfuron-methyl through isolated apple leaf cuticles in the presence of test substances; type: in vitro ADME; conditions: Mesosulfuron-methyl 0.1 g/L in spray liquid, no test substance, 10° C./61% rel. air humidity
# Text: as §1, §2
# [5] = tested on: apple leaf cuticles; assay: Penetration of Mesotrione through isolated apple leaf cuticles in the presence of test substances; conditions: Mesotrione 0.5 g/L in spray liquid, no test substance
# Text: as §1
# as §3, with “In each case, the geometric mean values of the penetration for intact membranes at the mean measurement times are given.” left out
# [6] = tested on: apple leaf cuticles; assay: Penetration of lodosulfuron-methyl through isolated apple leaf cuticles in the presence of test substances; type: in vitro ADME; conditions: lodosulfuron-methyl 0.1 g/L in spray liquid, no test substance, 10° C./61% rel. air humidity
# Text: as §1, §2
# [7] = Dynamic surface tension, bubble pressure method (BP2100 tensiometer, Krüss); type: physicochemical
# Procedure: Dynamic surface tension was determined via the bubble pressure method (BP2100 tensiometer, Krüss). Given a timespan of relevance for the spray application of agrochemicals in aqueous dilution (called the surface age in the bubble pressure method) of 200 milliseconds (ms), the value for dynamic surface tension in [mN/m] correlates with the adhesion on plants that are difficult to wet, such as barley (cereal). A value of 50 mN/m (at 20-21° C.) with respect to water (72.8 mN/m) results in an improvement in the adhesion from “zero adhesion” (0%) to about 50% (Baur P., Pontzen R.; 2007; Basic features of plant surface wettability and deposit formation and the impact of adjuvant; in R. E. Gaskin ed. Proceedings of the 8th International Symposium on Adjuvants for Agrochemicals; Publisher: International Society for Agrochemical Adjuvants (ISAA), Columbus, Ohio, USA).
compound,measurement,setting,value
"CC(C)N(C(=O)COc1nnc(C(F)(F)F)s1)c1ccc(F)cc1 [Flufenacet, reference compound]",Mean penetration for Flufenacet after time,[1]; 1 day,0.4%
same,Mean penetration for Flufenacet after time,[1]; 2 days,0.7%
"O=[N+]([O-])NC1=NCCN1Cc1ccc(Cl)nc1 [Imidacloprid, reference compound]",Mean penetration for Imidacloprid after time,[2]; 1 day,0.5%
same,Mean penetration for Imidacloprid after time,[2]; 4 days,1.3%
"Cc1cc(Cl)ccc1OCC(=O)O [MCPA, reference compound]",Mean penetration for MCPA after time,[3]; 0.5 day,9.0%
same,Mean penetration for MCPA after time,[3]; 1 day,17.1%
"COC(=O)c1ccc(CNS(C)(=O)=O)cc1S(=O)(=O)NC(=O)Nc1nc(OC)cc(OC)n1 [Mesosulfuron-methyl, reference compound]",Mean penetration for Mesosulfuron-methyl after time,[4]; 1 day,0%
same,Mean penetration for Mesosulfuron-methyl after time,[4]; 2 days,0%
CS(=O)(=O)c1ccc(C(=O)C2C(=O)CCCC2=O)c([N+](=O)[O-])c1 [Mesotrione],Mean penetration for Mesotrione after time,[5]; 1 day,0%
same,Mean penetration for Mesotrione after time,[5]; 2 days,0%
"COC(=O)c1ccc(I)cc1S(=O)(=O)NC(=O)Nc1nc(C)nc(OC)n1 [lodosulfuron-methyl, reference compound]",Mean penetration for lodosulfuron-methyl after time,[6]; 1 day,0%
same,Mean penetration for lodosulfuron-methyl after time,[6]; 2 days,0%
C8/C10 fatty acid 6 EO ester methyl ether [A2],Dynamic Surface tension,"[7]; 0.3 g/L, 20 ms",54.5 mN/m
same,Dynamic Surface tension,"[7]; 0.3 g/L, 50 ms",54.5 mN/m
same,Dynamic Surface tension,"[7]; 0.3 g/L, 100 ms",54.5 mN/m
same,Dynamic Surface tension,"[7]; 0.3 g/L, 200 ms",54.5 mN/m
same,Dynamic Surface tension,"[7]; 1 g/L, 20 ms",42.0 mN/m
same,Dynamic Surface tension,"[7]; 1 g/L, 50 ms",42.0 mN/m
same,Dynamic Surface tension,"[7]; 1 g/L, 100 ms",42.0 mN/m
same,Dynamic Surface tension,"[7]; 1 g/L, 200 ms",42.0 mN/m
same,Dynamic Surface tension,"[7]; 3 g/L, 20 ms",31.5 mN/m
same,Dynamic Surface tension,"[7]; 3 g/L, 50 ms",31.5 mN/m
same,Dynamic Surface tension,"[7]; 3 g/L, 100 ms",31.5 mN/m
same,Dynamic Surface tension,"[7]; 3 g/L, 200 ms",31.5 mN/m
same,Dynamic Surface tension,"[7]; 10 g/L, 20 ms",28.5 mN/m
same,Dynamic Surface tension,"[7]; 10 g/L, 50 ms",28.5 mN/m
same,Dynamic Surface tension,"[7]; 10 g/L, 100 ms",28.5 mN/m
same,Dynamic Surface tension,"[7]; 10 g/L, 200 ms",28.5 mN/m

# — patent US20220183282A1, “Fatty Acid Derivatives For Improving The Effect Of Agrochemical Actives” (priority 2019, published 2022)
